The assay has as its target T1, Orexin receptor type 2 (Homo sapiens, UniProt O43614).
T1 sequence (O43614 whole entry): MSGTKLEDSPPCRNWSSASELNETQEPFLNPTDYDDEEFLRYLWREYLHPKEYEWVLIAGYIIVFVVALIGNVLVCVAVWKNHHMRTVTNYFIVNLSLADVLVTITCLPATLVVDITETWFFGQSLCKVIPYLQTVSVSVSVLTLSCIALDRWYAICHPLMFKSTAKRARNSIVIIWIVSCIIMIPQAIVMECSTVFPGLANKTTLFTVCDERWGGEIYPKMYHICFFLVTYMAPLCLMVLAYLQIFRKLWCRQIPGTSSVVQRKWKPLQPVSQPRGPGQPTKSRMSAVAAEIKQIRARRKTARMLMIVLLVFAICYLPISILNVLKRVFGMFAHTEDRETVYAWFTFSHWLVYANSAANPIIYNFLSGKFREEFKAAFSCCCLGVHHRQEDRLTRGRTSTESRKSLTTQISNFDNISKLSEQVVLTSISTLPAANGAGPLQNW
Briefly: Receptor Activity Assay. As to the method: In a typical experiment, the OX1 and OX2 receptor agonist activity is determined in accordance with the following general experimental method.

This is an account of results in BindingDB's records for patent US11098029 (Merck Sharp & Dohme, 2021).

Broadly, the IC50 is the point on the concentration scale where inhibition reaches its midpoint. A low value points to greater potency.

For the compound `CC[C@@H]1C[C@H](NS(C)(=O)=O)[C@H](CO[C@H]2CC[C@@H](c3ccccc3)CC2)N1C(=O)OC` (racemic) [US11098029, Example 43], the IC50 was found to be 8.1 nM.

As to `CCNC(=O)N1[C@H](C)C[C@H](NS(C)(=O)=O)[C@@H]1COC1CCC(C(F)(F)F)CC1` (some centres not stated) [US11098029, Example 2], 117 nM corresponded to half-maximal inhibition (IC50).

On to `COC(=O)N1[C@H](C)C[C@H](NS(C)(=O)=O)[C@@H]1COC1CCC(C(C)C)CC1` (some centres not stated) [US11098029, Example 3], for which the IC50 stood at 19.3 nM.

In turn, `CC(C)OC(=O)N1[C@H](C)C[C@H](NS(C)(=O)=O)[C@@H]1COC1CCC(C(C)C)CC1` (some centres not stated) [US11098029, Example 5] came in with an IC50 of 227 nM.

`CCOC(=O)N1[C@H](C)C[C@H](NS(=O)(=O)N(C)C)[C@@H]1COC1CCC(C(C)C)CC1` (some centres not stated) [US11098029, Example 8] yielded an IC50 of 9.52 nM.

`CC(C)C1CCC(OC[C@H]2[C@@H](NS(C)(=O)=O)C[C@@H](C)N2C(=O)OCC(F)F)CC1` (some centres not stated) [US11098029, Example 9]: inhibition was half-maximal at 8.57 nM (IC50).

The compound `CC(C)C1CCC(OC[C@H]2[C@@H](NS(C)(=O)=O)C[C@@H](C)N2C(=O)OCCF)CC1` (some centres not stated) [US11098029, Example 10] came in with an IC50 of 69.3 nM.

As to `COC(=O)N1[C@H](C)C[C@H](NS(=O)(=O)N(C)C)[C@@H]1COC1CCC(C(F)(F)F)CC1` (some centres not stated) [US11098029, Example 11], the IC50 was determined as 264 nM.

`COC(=O)N1[C@H](C)C[C@H](NS(C)(=O)=O)[C@@H]1COC1CCC(CC(F)(F)F)CC1` (some centres not stated) [US11098029, Example 12] registered an IC50 of 390 nM.

For the compound `CNS(=O)(=O)N[C@H]1C[C@@H](C)N(C(=O)OCC(F)F)[C@H]1COC1CCC(C(C)C)CC1` (some centres not stated) [US11098029, Example 13], the midpoint of inhibition, the IC50, lay at 1.9 nM.

Compound `CC(C)C1CCC(OC[C@H]2[C@@H](NS(=O)(=O)N(C)C)C[C@@H](C)N2C(=O)OCC(F)F)CC1` (some centres not stated) [US11098029, Example 14] displayed an IC50 of 2.5 nM.

For `COC(=O)N1[C@H](C)C[C@H](NS(=O)(=O)N(C)CCS(C)(=O)=O)[C@@H]1COC1CCC(c2cccc(F)c2)CC1` (some centres not stated) [US11098029, Example 57], the half-maximal inhibitory concentration (IC50) was determined as 1.6 nM.
